Assay results taken from ChEMBL document CHEMBL1201862, “PubChem BioAssay data set” (2004).
Calls of active or inactive are those of the source.

Experiments:
[1] = target: T1, Voltage-gated N-type calcium channel alpha-1B subunit/Amyloid beta A4 precursor protein-binding family A member 1 (Homo sapiens, UniProt Q00975+Q02410); type: protein assay
[2] = target: T1, Voltage-gated N-type calcium channel alpha-1B subunit/Amyloid beta A4 precursor protein-binding family A member 1; type: protein assay; remark: listed apart in the source
[3] = target: T1, Voltage-gated N-type calcium channel alpha-1B subunit/Amyloid beta A4 precursor protein-binding family A member 1; experiment: disruptors of Mint-PDZ/N-type channel peptide interaction – biochemical, HTRF, SAR follow-up (AID 2489); type: functional
[4] = target: Peroxisome proliferator-activated receptor gamma/Nuclear receptor coactivator 1 (Homo sapiens, UniProt P37231); experiment: (§1) TR-FRET dose response biochemical High Throughput Screening assay for agonists of the steroid receptor coactivator 1 (SRC-1) recruitment by the peroxisome proliferator-activated receptor gamma (PPAR gamma): non-selective agonists. [Related pubchem assays (depositor defined):AID1300, AID1808, AID504735, AID631]; type: protein assay
[5] = target: Peroxisome proliferator-activated receptor gamma/Nuclear receptor coactivator 3 (Homo sapiens, UniProt P37231); experiment: as §1, with “3 (SRC-3)” for “1 (SRC-1)”, “assays: 1301 (Confirmation screen.), 1048 (Primary screen.)]” for “assays (depositor defined):AID1300, AID1808, AID504735, AID631]”; type: functional
[6] = target: Peroxisome proliferator-activated receptor gamma/Nuclear receptor coactivator 2 (Homo sapiens, UniProt P37231); experiment: TR-FRET dose response biochemical High Throughput Screening assay for agonists of the steroid receptor coactivator 2 (SRC-2) recruitment by the peroxisome proliferator-activated receptor gamma (PPAR gamma): non-selective agonists. [Related pubchem assays: 1297, 1032 ]; type: functional
[7] = target: T2, E3 ubiquitin-protein ligase XIAP (Homo sapiens, UniProt P98170); experiment: Counter Screen using XIAP-Bir3 for Chemical Antagonists of Bir1/2 domains of IAP-family anti-apoptotic proteins. [Related pubchem assays (depositor defined):AID1018, AID1449, AID1514, AID1638, AID1749, AID1750, AID488957, AID488963]
[8] = target: T2, E3 ubiquitin-protein ligase XIAP; experiment: XIAP antagonists, biochemical, IAP family, fluorescence polarization (AID 1018); type: functional
[9] = HIV-1 Env-mediated cell fusion inhibitors, dose response, CCR5-tropic Env (AID 2279); type: functional
[10] = target: Induced myeloid leukemia cell differentiation protein Mcl-1 (Homo sapiens, UniProt Q07820); type: functional
[11] = target: T3, Long-chain-fatty-acid--AMP ligase FadD28 (Mycobacterium tuberculosis, UniProt P9WQ59); experiment: Fluorescence polarization aasay to screen for inhibitors that compete for the binding of FadD28 to a bisubstrate Measured in Biochemical System Using Plate Reader - 2147-01_Inhibitor_Dose_CherryPick_Activity.; type: functional, Mycobacterium tuberculosis H37Rv
T3 sequence (P9WQ59 whole entry): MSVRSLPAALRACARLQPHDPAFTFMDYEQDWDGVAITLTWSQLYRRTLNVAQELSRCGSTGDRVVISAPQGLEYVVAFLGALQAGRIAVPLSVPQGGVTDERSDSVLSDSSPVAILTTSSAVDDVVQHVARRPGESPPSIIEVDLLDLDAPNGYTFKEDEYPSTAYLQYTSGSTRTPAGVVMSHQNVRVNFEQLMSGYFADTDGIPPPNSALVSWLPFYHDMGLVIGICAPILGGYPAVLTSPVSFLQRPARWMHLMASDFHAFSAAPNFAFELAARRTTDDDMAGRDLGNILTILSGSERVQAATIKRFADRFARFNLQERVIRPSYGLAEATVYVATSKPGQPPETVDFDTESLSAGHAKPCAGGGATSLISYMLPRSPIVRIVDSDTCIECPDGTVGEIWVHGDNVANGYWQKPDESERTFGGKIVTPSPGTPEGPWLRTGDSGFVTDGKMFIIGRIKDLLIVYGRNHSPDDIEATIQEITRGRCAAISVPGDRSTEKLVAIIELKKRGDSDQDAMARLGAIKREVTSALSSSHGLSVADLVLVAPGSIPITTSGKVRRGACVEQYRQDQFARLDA

[12] = target: Intestinal-type alkaline phosphatase (Homo sapiens, UniProt P09923); experiment: human intestinal alkaline phosphatase activators, dose response, biochemical, luminescence, uHTS hits (AID 463120); type: functional
[13] = NIH-3T3 fibroblast cytotoxicity, dose response, cytotoxicity control, cell-based, fluorescence, Alamar Blue, secondary assay (AID 2327); type: functional;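 further: NIH-3T3 mouse fibroblasts cultured with fluconazole at 8 µg/mL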
Aminopeptidase N = target: T4, Aminopeptidase N (Plasmodium falciparum FcB1/Columbia, UniProt O96935); experiment: P. falciparum M1AAP inhibitors, biochemical, fluorogenic H-Leu-NHMec substrate, 1536-well (AID 1445); design: species or system Plasmodium falciparum 3D7, 3D7
T4 sequence (O96935 whole entry): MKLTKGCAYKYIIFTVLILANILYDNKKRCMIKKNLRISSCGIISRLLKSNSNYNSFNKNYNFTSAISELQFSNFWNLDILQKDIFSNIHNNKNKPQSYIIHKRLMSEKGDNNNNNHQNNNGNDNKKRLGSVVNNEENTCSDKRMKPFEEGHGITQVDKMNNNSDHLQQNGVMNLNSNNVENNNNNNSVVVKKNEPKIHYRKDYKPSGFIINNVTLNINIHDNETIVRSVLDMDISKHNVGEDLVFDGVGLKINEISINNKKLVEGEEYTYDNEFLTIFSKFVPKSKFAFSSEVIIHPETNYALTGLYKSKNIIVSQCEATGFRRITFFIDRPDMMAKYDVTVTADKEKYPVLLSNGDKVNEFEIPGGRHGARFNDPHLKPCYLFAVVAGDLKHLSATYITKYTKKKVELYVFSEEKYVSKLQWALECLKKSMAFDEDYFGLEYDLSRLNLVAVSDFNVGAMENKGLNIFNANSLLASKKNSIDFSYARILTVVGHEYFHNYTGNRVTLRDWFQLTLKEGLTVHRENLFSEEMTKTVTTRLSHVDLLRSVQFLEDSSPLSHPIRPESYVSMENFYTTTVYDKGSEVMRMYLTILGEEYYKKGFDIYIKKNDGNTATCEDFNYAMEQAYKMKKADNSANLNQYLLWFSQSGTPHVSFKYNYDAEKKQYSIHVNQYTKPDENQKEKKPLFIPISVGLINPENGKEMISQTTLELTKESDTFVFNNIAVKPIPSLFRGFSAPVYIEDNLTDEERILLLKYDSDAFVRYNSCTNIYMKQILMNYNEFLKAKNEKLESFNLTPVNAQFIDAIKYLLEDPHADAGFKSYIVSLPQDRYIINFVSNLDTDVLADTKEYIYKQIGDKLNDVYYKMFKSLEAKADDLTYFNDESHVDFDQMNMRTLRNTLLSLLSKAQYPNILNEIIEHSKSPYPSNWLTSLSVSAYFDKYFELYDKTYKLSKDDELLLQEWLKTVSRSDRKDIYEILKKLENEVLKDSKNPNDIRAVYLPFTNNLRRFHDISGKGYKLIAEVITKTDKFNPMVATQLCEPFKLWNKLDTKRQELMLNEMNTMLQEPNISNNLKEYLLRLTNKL

[14] = tested on: Streptococcus sp. 'group A'; experiment: growth inhibition of control SK(-) GAS strain, dose response, counter-screen for streptokinase expression inhibitor project, luminescence, kanamycin, BacTiterGlo, confirmation (AID 1900); type: functional, organism-based
Streptokinase A = target: T5, Streptokinase A (Streptococcus pyogenes serotype M1, UniProt P10520); experiment: S. pyogenes streptokinase expression inhibitors, potency, dose response, plasminogen activation absorbance, OD405 (AID 1914); type: functional, Streptococcus pyogenes M1 GAS;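 further: secreted streptokinase activity via plasminogen activation per viability signal from cell pellet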
T5 sequence (P10520 whole entry): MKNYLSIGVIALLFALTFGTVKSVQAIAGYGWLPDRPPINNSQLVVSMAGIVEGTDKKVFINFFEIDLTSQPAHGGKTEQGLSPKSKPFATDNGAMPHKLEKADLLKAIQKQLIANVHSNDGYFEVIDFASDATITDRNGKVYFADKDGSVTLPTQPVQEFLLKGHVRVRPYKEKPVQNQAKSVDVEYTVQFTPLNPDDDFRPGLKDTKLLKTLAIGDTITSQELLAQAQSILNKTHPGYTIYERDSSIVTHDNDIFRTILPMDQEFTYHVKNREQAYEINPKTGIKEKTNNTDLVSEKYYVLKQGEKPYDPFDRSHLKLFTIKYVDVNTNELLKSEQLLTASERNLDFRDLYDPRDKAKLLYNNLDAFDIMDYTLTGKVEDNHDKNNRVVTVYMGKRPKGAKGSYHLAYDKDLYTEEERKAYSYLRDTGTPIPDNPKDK

[15] = C. albicans growth with fluconazole, confirmation, fluorescence, retest (AID 2467); type: functional, cell-based
[16] = target: T6, Serine/threonine-protein phosphatase (Candida dubliniensis (strain CD36 / CBS 7987 / NCPF 3949 / NRRLY-17841) (Yeast), UniProt B9W6M3); experiment: calcineurin pathway inhibitors in yeast reporter, dose response, S. cerevisiae, CDRE-lacZ, luminescence, secondary (AID 2388); type: functional, cell-based;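 further: yeast reporter cells carrying a calcineurin-responsive lacZ construct stimulated with calcium chloride; luminescent beta-galactosidase reporter signal in whole cells rather than isolated phosphatase activity; potency for inhibition where a drop in reporter signal means calcineurin blockade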
T6 sequence (B9W6M3 whole entry): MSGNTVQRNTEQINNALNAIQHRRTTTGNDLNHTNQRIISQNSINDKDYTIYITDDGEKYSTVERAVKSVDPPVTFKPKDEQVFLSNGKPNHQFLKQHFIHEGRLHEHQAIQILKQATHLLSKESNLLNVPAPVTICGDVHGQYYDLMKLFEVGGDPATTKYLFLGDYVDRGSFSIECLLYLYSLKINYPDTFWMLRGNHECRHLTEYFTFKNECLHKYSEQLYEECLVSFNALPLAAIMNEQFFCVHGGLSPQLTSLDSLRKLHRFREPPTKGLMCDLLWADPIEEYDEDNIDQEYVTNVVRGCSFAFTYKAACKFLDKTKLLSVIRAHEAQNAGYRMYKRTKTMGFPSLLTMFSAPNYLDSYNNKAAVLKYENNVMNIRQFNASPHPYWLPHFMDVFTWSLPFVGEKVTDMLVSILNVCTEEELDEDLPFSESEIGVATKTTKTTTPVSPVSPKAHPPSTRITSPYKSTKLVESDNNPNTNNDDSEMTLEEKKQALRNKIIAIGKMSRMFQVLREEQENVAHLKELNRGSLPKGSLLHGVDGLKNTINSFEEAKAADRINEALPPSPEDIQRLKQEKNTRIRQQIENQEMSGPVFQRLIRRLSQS

Streptococcus = experiment: Group A Streptococcus viability loss, dose response, counter-screen for streptokinase expression inhibitor project, luminescence, BacTiterGlo (AID 1915); type: functional, organism-based;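 further: potency for reduction of bacterial viability or growth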
Vero = Vero cell cytotoxicity, cytotoxicity control for flavivirus capping enzyme inhibitors (AID 588742); type: functional; details: Chlorocebus sabaeus
Genome polyprotein = Genome polyprotein (dengue virus type 2, UniProt P29990); experiment: Dengue-2 NS5 methyltransferase inhibitors, primary screen, biochemical, confirmation dose response (AID 588689); type: functional
[17] = target: ATP-dependent molecular chaperone HSP82 (Candida albicans (strain WO-1) (Yeast), UniProt C4YTQ8); experiment: loss of DOC-induced GRE-beta-galactosidase reporter signal, dose response, Hsp90 inhibitor project, S. cerevisiae, luminescence (AID 2400); type: functional, cell-based;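 further: beta-galactosidase luminescence from glucocorticoid response element reporter as proxy for Hsp90 function; inhibitor potency where signal loss means Hsp90 inhibition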
[18] = target: T7, Probable nicotinate-nucleotide adenylyltransferase (Staphylococcus aureus (strain N315), UniProt P65502); type: functional, Staphylococcus aureus subsp. aureus N315;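 on IC50 Mean: confirmatory dose-response retesting of NadD inhibitor hits first found in an ultra-high-throughput screen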
[19] = target: T7, Probable nicotinate-nucleotide adenylyltransferase; type: functional, Staphylococcus aureus subsp. aureus N315; details: read-out: IC50_Mean
Escherichia coli = experiment: microbe, parasite or virus in culture

T1 sequence (Q00975 whole entry): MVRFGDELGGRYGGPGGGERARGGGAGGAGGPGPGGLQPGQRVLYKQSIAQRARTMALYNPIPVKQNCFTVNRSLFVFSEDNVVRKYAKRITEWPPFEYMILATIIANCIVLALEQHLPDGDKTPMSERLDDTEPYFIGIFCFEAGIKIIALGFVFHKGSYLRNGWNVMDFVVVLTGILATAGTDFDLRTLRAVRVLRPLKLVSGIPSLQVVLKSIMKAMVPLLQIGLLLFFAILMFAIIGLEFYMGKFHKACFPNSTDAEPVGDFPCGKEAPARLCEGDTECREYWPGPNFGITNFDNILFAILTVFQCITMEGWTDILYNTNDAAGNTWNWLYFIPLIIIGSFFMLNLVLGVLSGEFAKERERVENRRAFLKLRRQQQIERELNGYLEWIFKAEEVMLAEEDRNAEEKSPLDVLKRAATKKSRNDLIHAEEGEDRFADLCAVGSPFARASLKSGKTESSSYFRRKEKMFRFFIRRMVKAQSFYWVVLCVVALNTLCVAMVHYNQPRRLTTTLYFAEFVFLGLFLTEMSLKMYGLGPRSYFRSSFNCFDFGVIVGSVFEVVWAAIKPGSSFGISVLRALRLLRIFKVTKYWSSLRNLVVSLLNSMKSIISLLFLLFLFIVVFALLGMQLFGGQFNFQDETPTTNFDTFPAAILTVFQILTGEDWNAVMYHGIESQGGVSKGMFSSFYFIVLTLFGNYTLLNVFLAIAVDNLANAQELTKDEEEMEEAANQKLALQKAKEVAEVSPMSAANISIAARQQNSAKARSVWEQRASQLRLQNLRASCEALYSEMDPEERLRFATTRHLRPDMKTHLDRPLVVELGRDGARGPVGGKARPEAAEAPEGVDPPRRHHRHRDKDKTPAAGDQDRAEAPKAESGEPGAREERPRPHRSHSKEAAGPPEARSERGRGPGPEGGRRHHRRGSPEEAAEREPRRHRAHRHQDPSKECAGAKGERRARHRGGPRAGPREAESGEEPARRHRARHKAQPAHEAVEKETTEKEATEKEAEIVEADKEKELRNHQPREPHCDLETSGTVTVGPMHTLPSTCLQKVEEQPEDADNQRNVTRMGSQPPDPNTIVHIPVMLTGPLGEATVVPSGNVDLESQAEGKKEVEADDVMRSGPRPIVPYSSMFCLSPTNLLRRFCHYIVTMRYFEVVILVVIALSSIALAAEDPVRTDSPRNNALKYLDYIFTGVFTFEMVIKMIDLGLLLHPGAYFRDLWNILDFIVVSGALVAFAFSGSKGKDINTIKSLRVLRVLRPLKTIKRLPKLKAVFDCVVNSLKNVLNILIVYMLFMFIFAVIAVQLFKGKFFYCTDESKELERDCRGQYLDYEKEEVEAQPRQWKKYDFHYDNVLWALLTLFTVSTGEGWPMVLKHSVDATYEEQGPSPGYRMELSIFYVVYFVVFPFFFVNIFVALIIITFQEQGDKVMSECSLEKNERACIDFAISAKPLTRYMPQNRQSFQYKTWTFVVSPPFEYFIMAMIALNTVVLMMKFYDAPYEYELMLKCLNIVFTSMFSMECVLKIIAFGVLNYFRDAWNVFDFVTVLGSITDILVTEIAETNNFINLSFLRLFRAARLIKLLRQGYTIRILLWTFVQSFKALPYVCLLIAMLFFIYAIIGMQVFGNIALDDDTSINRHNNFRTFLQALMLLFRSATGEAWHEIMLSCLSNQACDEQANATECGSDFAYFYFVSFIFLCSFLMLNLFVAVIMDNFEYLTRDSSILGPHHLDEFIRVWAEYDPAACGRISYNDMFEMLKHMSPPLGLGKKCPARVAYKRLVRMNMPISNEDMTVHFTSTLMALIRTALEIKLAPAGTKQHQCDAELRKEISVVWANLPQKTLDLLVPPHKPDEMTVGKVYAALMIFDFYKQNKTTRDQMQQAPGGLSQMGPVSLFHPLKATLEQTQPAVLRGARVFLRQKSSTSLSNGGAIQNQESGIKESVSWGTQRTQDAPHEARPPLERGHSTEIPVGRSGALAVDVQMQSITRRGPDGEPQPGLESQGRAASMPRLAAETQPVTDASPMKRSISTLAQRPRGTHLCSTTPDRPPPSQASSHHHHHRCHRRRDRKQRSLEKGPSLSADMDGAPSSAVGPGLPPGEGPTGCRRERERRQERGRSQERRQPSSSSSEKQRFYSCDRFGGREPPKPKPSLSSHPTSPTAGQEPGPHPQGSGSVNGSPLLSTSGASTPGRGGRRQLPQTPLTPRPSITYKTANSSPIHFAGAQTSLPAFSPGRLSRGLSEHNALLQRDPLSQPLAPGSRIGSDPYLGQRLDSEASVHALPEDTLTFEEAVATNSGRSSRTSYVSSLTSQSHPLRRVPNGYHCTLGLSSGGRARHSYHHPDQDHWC
T1 sequence (Q02410 whole entry): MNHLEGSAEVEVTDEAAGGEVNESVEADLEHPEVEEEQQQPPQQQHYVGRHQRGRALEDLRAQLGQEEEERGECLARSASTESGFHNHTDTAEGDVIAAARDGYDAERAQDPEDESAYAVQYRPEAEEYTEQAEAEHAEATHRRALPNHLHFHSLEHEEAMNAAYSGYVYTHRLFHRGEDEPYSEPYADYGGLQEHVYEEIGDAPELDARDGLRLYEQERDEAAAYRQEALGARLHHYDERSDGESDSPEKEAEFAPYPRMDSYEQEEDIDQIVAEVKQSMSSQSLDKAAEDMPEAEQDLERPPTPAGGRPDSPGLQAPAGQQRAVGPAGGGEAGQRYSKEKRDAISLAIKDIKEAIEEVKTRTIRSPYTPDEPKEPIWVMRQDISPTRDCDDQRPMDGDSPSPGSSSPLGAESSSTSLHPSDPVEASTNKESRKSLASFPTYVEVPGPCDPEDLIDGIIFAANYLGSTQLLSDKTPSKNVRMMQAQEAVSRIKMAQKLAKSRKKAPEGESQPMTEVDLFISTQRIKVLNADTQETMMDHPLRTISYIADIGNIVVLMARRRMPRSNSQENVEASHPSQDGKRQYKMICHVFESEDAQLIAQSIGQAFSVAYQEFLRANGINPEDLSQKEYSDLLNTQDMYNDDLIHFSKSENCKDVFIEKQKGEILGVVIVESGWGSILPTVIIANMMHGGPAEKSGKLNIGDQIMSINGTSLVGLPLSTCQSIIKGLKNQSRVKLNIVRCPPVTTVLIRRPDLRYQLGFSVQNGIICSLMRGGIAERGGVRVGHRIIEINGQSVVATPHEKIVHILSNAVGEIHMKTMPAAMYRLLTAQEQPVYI
T2 sequence (P98170 whole entry): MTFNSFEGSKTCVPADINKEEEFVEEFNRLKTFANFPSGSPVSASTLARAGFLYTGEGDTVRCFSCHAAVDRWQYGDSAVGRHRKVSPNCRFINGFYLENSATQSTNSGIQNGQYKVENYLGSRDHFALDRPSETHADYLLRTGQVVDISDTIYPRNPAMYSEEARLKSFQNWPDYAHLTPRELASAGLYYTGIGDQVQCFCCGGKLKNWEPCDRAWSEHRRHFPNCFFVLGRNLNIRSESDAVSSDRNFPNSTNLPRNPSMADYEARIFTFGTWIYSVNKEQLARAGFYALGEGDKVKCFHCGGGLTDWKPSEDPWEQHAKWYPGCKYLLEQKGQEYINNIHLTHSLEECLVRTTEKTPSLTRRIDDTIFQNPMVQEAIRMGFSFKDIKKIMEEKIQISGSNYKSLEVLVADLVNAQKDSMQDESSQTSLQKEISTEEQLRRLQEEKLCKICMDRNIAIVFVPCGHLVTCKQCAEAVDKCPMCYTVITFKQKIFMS
Induced myeloid leukemia cell differentiation protein Mcl-1, sequence (Q07820 whole entry): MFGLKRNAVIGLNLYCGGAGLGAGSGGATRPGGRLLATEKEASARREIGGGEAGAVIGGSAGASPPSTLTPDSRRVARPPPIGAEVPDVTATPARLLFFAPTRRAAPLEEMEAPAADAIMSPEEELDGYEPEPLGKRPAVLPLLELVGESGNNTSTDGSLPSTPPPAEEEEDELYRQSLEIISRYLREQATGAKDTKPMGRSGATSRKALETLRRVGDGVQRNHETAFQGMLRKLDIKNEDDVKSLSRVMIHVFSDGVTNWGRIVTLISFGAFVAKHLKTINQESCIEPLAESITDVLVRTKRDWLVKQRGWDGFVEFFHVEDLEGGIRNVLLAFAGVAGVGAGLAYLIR
T7 sequence (P65502 whole entry): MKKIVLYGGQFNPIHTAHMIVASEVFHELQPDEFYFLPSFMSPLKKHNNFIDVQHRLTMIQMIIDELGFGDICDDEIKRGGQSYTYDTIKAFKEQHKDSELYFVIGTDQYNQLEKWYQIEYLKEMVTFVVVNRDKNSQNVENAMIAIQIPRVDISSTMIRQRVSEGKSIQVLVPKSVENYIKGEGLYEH
Intestinal-type alkaline phosphatase, sequence (P09923 whole entry): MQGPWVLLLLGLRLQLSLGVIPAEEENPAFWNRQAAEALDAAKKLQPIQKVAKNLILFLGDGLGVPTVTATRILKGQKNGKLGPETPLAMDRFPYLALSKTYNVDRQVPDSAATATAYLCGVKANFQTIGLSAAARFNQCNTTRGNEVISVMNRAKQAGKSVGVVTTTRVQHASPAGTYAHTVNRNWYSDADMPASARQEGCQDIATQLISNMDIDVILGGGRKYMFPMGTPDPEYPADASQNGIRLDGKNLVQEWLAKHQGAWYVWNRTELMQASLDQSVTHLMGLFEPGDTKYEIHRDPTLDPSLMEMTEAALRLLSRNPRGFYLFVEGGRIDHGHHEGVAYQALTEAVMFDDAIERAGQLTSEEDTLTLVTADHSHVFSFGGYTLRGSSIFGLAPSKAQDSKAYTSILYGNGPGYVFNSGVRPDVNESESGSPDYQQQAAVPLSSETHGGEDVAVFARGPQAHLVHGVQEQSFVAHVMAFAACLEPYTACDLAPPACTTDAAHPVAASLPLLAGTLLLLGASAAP

Cc1ccc(/C=C/C(=O)N2CCN(c3ncccn3)CC2)o1
IC50 [1]: 4.71 µM (active) | IC50 [2]: 4.77 µM (active) | IC50 [3]: > 56.8 µM (inactive)

O=C(CSc1ncnc2c1oc1ccccc12)NCc1ccc(F)cc1
EC50 [4]: 21.9 µM (inactive) | EC50 [5]: 83.1 µM (not active) | EC50 [6]: 20.5 µM (not active)

COc1cc2cnc(Cl)nc2cc1OC
IC50 [7]: > 100 µM (inactive) | IC50 [8]: > 100 µM (not active)

Cc1c2c(=O)n(-c3nc4ccccc4s3)nc-2cc(O)n1Cc1ccccc1
IC50 [1]: 3.01 µM (active) | IC50 [9]: 17.4 µM (active) | IC50 [2]: > 50 µM (inactive) | IC50 [10]: 4.32 µM (active) | AC50 [11]: 20.5 µM (active)

Nc1ncnc(Sc2ccc(Cl)cc2)c1[N+](=O)[O-]
IC50 [7]: > 100 µM (inactive) | IC50 [8]: > 100 µM (not active)

O=C(CSc1nc[nH]n1)NCCc1ccccc1
EC50 [12]: > 100 µM (inactive)

Cc1ccc(N2C(=O)/C(=C\Nc3ccccc3-c3nnc(S)nc3O)c3ccccc3C2=O)cc1C
EC50 [13]: 16 µM (inconclusive) | IC50 (Aminopeptidase N): 39.2 µM (active) | EC50 [4]: 26.6 µM (inactive) | EC50 [14]: 0.798 µM (active) | EC50 [5]: > 79.4 µM (not active) | EC50 (Streptokinase A): > 150 µM (not active) | EC50 [15]: 0.262 µM (active) | EC50 [16]: > 180 µM (inactive) | EC50 [6]: 13.2 µM (not active) | IC50 [10]: 3.26 µM (active) | EC50 (Streptococcus): 13.8 µM (active) | CC50 (Vero): > 40 µM (active) | IC50 (Genome polyprotein): 31.5 µM (active) | EC50 [17]: 23 µM (active) | IC50 [18]: 3.94 µM (active) | IC50 [19]: 11.2 µM (active) | AC50 (Escherichia coli): 33.6 µM (active)
